# Test results: ChEMBL document CHEMBL1201862, “PubChem BioAssay data set” (2004)
# Activity calls are given as the source filed them. Rule as the data show it, for most assays here: actives have a measured EC50 and inactives only a lower limit.
# Key:
# [1] = test system: H9c2; assay: cells; format: functional, cell-based; conditions: Rattus norvegicus, H9c2, Myocardium;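 also: confirmatory concentration-response retest of ultra-high-throughput screening hits for modulation of myocardial damage; cell death induced by hydrogen peroxide oxidative stress; compound pretreatment for 60 min then peroxide exposure for 2 h; potency is for protecting the cells against peroxide damage rather than for killing them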
# [2] = molecular target: T1, RNA-binding protein pos-1 (Caenorhabditis elegans, UniProt G5EF15); assay: inhibitors of POS-1/mex-3 RNA binding, dose response, biochemical, fluorescence polarization (AID 1964);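 also: purified POS-1 fused to maltose binding protein made in E. coli; potency of compounds blocking POS-1 binding to fluorescent RNA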
# T1 sequence (G5EF15 whole entry): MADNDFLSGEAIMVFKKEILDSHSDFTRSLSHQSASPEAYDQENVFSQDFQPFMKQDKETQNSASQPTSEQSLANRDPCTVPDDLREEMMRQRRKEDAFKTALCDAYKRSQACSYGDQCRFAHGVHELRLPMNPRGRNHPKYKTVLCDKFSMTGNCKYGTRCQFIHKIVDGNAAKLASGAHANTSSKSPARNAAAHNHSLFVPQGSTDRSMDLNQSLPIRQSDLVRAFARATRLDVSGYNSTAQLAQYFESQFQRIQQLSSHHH
# [3] = molecular target: T2, Zinc finger protein mex-5 (Caenorhabditis elegans, UniProt Q9XUB2); assay: MEX-5/TCR-2 RNA interaction inhibitors, dose response, biochemical, C. elegans, fluorescence polarization (AID 1960)
# T2 sequence (Q9XUB2 whole entry): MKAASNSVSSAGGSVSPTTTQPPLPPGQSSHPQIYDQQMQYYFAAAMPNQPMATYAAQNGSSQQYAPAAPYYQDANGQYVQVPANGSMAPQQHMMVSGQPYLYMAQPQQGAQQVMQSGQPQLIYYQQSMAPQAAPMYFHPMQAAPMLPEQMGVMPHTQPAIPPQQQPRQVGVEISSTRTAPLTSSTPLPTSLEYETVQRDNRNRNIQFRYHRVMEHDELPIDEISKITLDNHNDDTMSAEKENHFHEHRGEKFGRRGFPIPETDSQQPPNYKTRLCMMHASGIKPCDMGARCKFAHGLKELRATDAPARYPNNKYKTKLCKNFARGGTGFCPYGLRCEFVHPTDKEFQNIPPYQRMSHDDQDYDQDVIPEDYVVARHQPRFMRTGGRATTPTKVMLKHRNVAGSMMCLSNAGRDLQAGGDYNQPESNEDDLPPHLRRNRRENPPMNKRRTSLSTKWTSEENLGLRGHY
# [4] = molecular target: T3, Calpain-2 catalytic subunit (Sus scrofa, UniProt P43367); assay: pig calpain II inhibitor potency, dose response, biochemical, fluorogenic peptide substrate (AID 1420); format: functional
# T3 sequence (P43367 whole entry): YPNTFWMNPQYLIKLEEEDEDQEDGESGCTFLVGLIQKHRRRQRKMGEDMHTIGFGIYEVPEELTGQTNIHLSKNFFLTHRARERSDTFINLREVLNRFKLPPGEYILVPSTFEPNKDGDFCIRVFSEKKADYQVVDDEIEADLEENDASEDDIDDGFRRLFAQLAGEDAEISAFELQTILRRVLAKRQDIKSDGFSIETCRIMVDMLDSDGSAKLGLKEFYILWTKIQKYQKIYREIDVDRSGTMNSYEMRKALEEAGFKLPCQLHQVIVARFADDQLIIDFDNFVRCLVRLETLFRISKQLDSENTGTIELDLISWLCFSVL
# [5] = C. albicans growth with fluconazole, confirmation, fluorescence, retest (AID 2467); format: functional, cell-based
# [6] = NIH-3T3 fibroblast cytotoxicity, dose response, cytotoxicity control, cell-based, fluorescence, Alamar Blue, secondary assay (AID 2327); format: functional;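 also: NIH-3T3 mouse fibroblasts cultured with fluconazole at 8 µg/mL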
# [7] = molecular target: Cytochrome P450 2C9 (Homo sapiens, UniProt P11712)
# Cytochrome P450 2C9, sequence (P11712 whole entry): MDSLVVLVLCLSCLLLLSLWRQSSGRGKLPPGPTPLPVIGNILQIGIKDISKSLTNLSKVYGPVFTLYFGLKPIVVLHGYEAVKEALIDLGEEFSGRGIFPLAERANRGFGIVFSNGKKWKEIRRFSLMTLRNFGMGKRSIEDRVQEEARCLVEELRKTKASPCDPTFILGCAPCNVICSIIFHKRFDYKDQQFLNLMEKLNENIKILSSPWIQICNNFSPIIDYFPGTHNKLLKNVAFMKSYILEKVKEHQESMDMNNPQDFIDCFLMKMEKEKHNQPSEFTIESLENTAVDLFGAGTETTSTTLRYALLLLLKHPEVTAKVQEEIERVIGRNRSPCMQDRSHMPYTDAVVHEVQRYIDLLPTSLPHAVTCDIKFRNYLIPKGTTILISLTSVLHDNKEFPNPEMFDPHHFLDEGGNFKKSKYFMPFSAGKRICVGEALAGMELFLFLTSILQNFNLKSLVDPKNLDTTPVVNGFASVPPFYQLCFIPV
# [8] = molecular target: T4, Corticotropin-releasing factor receptor 2/Corticotropin-releasing factor-binding protein (Homo sapiens, UniProt P24387+Q13324); assay: Dose Response confirmation of uHTS hits for small molecule antagonists of the CRF-binding protein and CRF-R2 receptor complex.; format: functional; conditions: read-out: IC50_Mean
# T4 sequence (Q13324 whole entry): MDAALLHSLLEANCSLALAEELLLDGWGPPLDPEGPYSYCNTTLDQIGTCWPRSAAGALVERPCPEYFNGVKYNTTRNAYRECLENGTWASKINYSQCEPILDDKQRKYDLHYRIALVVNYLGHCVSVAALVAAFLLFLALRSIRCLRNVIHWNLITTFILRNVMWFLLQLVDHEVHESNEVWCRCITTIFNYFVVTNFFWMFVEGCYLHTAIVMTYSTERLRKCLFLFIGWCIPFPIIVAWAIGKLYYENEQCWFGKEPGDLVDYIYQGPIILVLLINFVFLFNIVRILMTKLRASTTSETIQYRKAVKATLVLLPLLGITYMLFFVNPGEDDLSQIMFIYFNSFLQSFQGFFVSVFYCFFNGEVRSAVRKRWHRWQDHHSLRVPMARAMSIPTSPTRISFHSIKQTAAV
# T4 sequence (P24387 whole entry): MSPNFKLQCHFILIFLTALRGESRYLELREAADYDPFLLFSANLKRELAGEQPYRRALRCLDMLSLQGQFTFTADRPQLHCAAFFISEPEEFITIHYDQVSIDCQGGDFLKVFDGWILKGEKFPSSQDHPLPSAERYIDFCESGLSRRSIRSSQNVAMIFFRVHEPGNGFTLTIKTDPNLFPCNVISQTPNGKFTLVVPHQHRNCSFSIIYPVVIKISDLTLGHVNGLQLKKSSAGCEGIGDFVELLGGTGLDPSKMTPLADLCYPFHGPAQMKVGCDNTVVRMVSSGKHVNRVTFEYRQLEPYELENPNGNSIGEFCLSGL
# [9] = molecular target: T4, Corticotropin-releasing factor receptor 2/Corticotropin-releasing factor-binding protein; assay: activators of CRF receptor 2 with binding protein – uHTS hits, confirmation (AID 602473); format: functional; conditions: read-out: EC50_Mean
# [10] = Luminescence Cell-Based Dose Confirmation HTS to Identify Activators of 5'UTR Stem-Loop Driven Alpha-Synuclein mRNA Translation in H4 Neuroglioblastoma Cells. [Related pubchem assays: 1829 (Project Summary), 1814 (Primary HTS)]; format: functional
# [11] = test system: H4; assay: Luminescence Cell-Based Dose Response HTS to Identify Activators of 5'UTR Stem-Loop Driven Prion Protein mRNA Translation in H4 Neuroglioblastoma Cells. [Related pubchem assays: 1829 (Project Summary), 1814 (Primary HTS)]; format: functional; conditions: Homo sapiens
# [12] = Luminescence Cell-Based Dose Response HTS to Identify Activators of Luciferase Translation or Activity in H4 […] Cells. [Related pubchem assays: 1829 (Project Summary), 1814 (Primary HTS)]; format: functional
structure (smiles),measurement,setting,value
COc1ccc(CCNC(=O)C(=O)NCC2CCCN2S(=O)(=O)c2cc(C)ccc2C)cc1 (stereo not given),IC50,[1],34.1 µM (inactive)
CCCCC1=CC2=CC(=O)C(C)(OC(=O)c3ccco3)C(=O)C2=CO1 (stereo not given),EC50,[2],20.5 µM (active)
same,EC50,[3],16.2 µM (active)
C=CCSc1nnc(N2C(=O)C(O)=C(C(=O)c3ccco3)C2c2ccccc2F)s1 (stereo not given),EC50,[2],48.3 µM (active)
same,EC50,[3],54.8 µM (active)
CN(C)S(=O)(=O)c1ccc2c(c1)nc(CCC(=O)NCc1ccc(Cl)cc1)n2C,IC50,[4],6.82 µM (not active)
O=C1/C(=C/c2ccc(Br)cc2)Oc2cc(O)ccc21,EC50,[2],7.71 µM (active)
same,EC50,[3],6.67 µM (active)
O=P(Nc1ccccc1)(Oc1ccccc1)Oc1ccccc1,IC50,[1],> 79 µM (inactive)
CCCCOP(=O)(c1ccc(N(C)C)cc1)C(O)c1ccccc1F (stereo not given),EC50,[5],2.56 µM (active)
same,EC50,[6],> 150 µM (inactive)
CCC(C)n1c(=N)c(C#N)cc2c(=O)n3cc(C)ccc3nc21 (stereo not given),EC50,[2],> 300 µM (not active)
same,EC50,[3],254 µM (inconclusive)
Cc1ccccc1Nc1scc(-c2ccc(Cl)cc2)[n+]1-c1ccccc1C,IC50,[4],> 50 µM (not active)
CCc1cc(C(=O)Nc2ccc(OC)nc2)sc1C,EC50,[2],11.8 µM (active)
same,EC50,[3],9.29 µM (active)
CC1(C)C(=O)OC(c2c(F)c(F)c(F)c(F)c2F)C2(CCCCC2)C1=O (stereo not given),IC50,[4],4.17 µM (not active)
CNC(=O)NC(=O)C(C)Oc1ccccc1F (stereo not given),IC50,[4],< 0.4 µM (not active)
COc1ccc(OC)c(-c2cc(C(=O)O)c3cc4ccccc4cc3n2)c1,AC50,[7],3.16 µM (inconclusive)
same,IC50,[8],> 47.1 µM (inactive)
same,EC50,[9],> 53 µM (inactive)
O=C(CSc1nc(-c2ccco2)cc(C(F)(F)F)n1)NCCc1ccccc1,EC50,[5],> 38 µM (not active)
same,EC50,[6],136 µM (inconclusive)
O=C(Nc1ccc2c(c1)OCO2)c1cnn2c(C(F)(F)F)cc(-c3ccco3)nc12,IC50,[1],> 79 µM (inactive)
Cc1cc2c3c(c1)C(C)CC(C)(C)N3C(=O)C2=O (stereo not given),EC50,[2],> 300 µM (not active)
same,EC50,[3],> 300 µM (not active)
CCCc1cc(=O)oc2c(CNc3ccc(OCC)cc3)c(O)ccc12,IC50,[1],> 79 µM (inactive)
Cc1ccc(S(=O)(=O)NNC(=S)NC(=O)c2ccc([N+](=O)[O-])cc2)cc1,EC50,[2],31.8 µM (active)
same,EC50,[3],21.1 µM (active)
Oc1nc2cc3c(cc2cc1CN(Cc1nnnn1CC1CCCO1)C1CCCCC1)OCO3 (stereo not given),IC50,[1],27.5 µM (active)
CCN(CC)c1nc(-c2nnn[nH]2)nc(N(CC)CC)n1,EC50,[2],> 300 µM (not active)
same,EC50,[3],> 300 µM (not active)
Oc1ccccc1CN(Cc1ccco1)CC(O)COCc1ccc(Cl)cc1 (stereo not given),IC50,[4],7.83 µM (not active)
CSCc1cc(N2CCOCC2)nc(SCc2ccc(Cl)cc2Cl)n1,IC50,[4],3.57 µM (not active)
CC(C)CCN(C(=S)NC(=O)C1CCCCC1)c1c(N)n(Cc2ccccc2)c(=O)[nH]c1=O,IC50,[4],> 50 µM (not active)
O=C(CSc1ccc2nnc(-c3ccncc3)n2n1)Nc1nccs1,IC50,[4],> 50 µM (not active)
CC1CCN(Cc2cnc(Cl)s2)CC1,IC50,[4],1.78 µM (not active)
C=CCOc1c(CNc2cccc(C(=O)O)c2)cccc1OCC,IC50,[8],> 47.1 µM (inactive)
same,EC50,[9],> 53 µM (inactive)
CC1(C)Cc2c(C#N)c(NCC3CCCO3)nc(-c3ccco3)c2CO1 (stereo not given),IC50,[8],> 47.1 µM (inactive)
same,EC50,[9],> 53 µM (inactive)
COCCn1c(SCc2nnc(-c3ccccc3)o2)nc2sc3c(c2c1=O)CCC3,IC50,[8],> 47.1 µM (inactive)
same,EC50,[9],> 53 µM (inactive)
COc1cc(C#Cc2c(-c3ccccc3)n(C)c3ccccc23)cc(OC)c1,IC50,[8],> 47.1 µM (inactive)
same,EC50,[9],> 53 µM (inactive)
COc1cccc(CN(C)C(=O)C(Cc2ccccc2)NC(=O)c2ccccc2)c1OC (stereo not given),IC50,[1],6.93 µM (active)
O=C(NC1CCCCC1)C(c1ccc2ncccc2c1)N(Cc1cccs1)C(=O)c1cccs1 (stereo not given),IC50,[1],> 79 µM (inactive)
CCCCN1C(=O)NC(=O)/C(=C\NNC(=O)c2ccncc2)C1=O,EC50,[2],> 300 µM (not active)
same,EC50,[3],> 300 µM (not active)
COC(=O)/C=C1/SC(NNC(=O)c2ccc(Cl)cc2Cl)=NC1=O,IC50,[8],> 47.1 µM (inactive)
same,EC50,[9],> 53 µM (inactive)
O=C(COc1ccccc1C(=O)c1cnn(-c2ccccc2)c1)Nc1ccc2ccccc2c1,EC50,[10],5.67 µM (active)
same,IC50,[8],> 47.1 µM (inactive)
same,EC50,[11],7.44 µM (active)
same,EC50,[9],> 53 µM (inactive)
same,EC50,[12],6.97 µM (active)
CC(C)CC(=O)Nc1ccc(C(=O)COC(=O)Cc2nnc(O)c3ccccc23)cc1,IC50,[1],18.4 µM (active)
CC(C)CCNC(=O)NC(=O)CSc1nnc(-c2ccccc2Br)o1,IC50,[4],> 50 µM (not active)
COc1ccccc1Nc1ccc(S(=O)(=O)N2CCCCC2)cc1[N+](=O)[O-],IC50,[8],> 47.1 µM (inactive)
same,EC50,[9],> 53 µM (inactive)
CCOC(=O)c1c(NC(=O)COC(=O)Cc2nnc(O)c3ccccc23)sc(C(=O)NC)c1C,IC50,[1],> 79 µM (inactive)
Cc1ccccc1N1CCN(C2CCCN(C(=O)c3cn4c(C)cccc4n3)C2)CC1 (stereo not given),IC50,[8],> 47.1 µM (inactive)
same,EC50,[9],> 53 µM (inactive)
COc1ccc(NS(=O)(=O)c2cc(NC(=O)Cc3nnc(O)c4ccccc34)ccc2OC)cc1,IC50,[1],> 79 µM (inactive)
CN(C)P(=O)(NC(=O)c1cccn1C)N(C)C,IC50,[8],> 47.1 µM (inactive)
same,EC50,[9],> 53 µM (inactive)
C=CCO/C(O)=C1\C(C)=NC2(O)c3ccccc3C(=O)C12O (stereo not given),IC50,[8],> 47.1 µM (inactive)
same,EC50,[9],> 53 µM (inactive)
COc1cc(/C=N/n2nnnc2Nc2ccccc2)cc(OC)c1OC,IC50,[1],12.4 µM (active)
Cc1ccc(NC(=O)COC(=O)c2cccnc2Cl)cc1S(=O)(=O)N1CCOCC1,IC50,[8],> 47.1 µM (inactive)
same,EC50,[9],> 53 µM (inactive)
O=C(O)CC1S/C(=N/N=C/c2ccc(Br)cc2)N(c2ccccc2)C1=O (stereo not given),IC50,[4],9.55 µM (not active)
CN1CCN(/C=N/C2=C(C#N)C(c3ccccc3)C3=C(CC(C)(C)CC3=O)O2)CC1 (stereo not given),AC50,[7],14.1 µM (inconclusive)
same,EC50,[2],> 300 µM (not active)
same,EC50,[3],> 300 µM (not active)
